This note sets out measurements from patent EP2181998B1, “New benzothiazinone derivative and its use as antibacterial agent” (priority 2006, dated 2007).

In brackets after ≈: the same amount, converted by molar mass. Read-outs that look alike come from different tables or passages of the source. Where only a bound is given, the exact number is not on record here.

The test system of one test is M. fortuitum B. Conditions: Mycolicibacterium fortuitum, read-out: MIC M.fortuitum.
For test [1], the system named is Mycobacterium tuberculosis H37Rv and clinical isolates 6341 and 6374. The experiment in a line: MIC and MBC, classical method, over several strains. The class given is cell-based. Conditions: for MBC: read-out: MBC (µg/mL) mean; for MIC: read-out: MIC (µg/mL) mean.
In another test the test system is M. vaccae IMET 10 10670. The class given is cell-based.
The test system of test [2] is Mycobacterium smegmatis SG 987. The class given is cell-based.
Test [3] concerns Mycobacterium tuberculosis clinical isolate 6374. The class given is cell-based.
Test [4] deals with Mycobacterium tuberculosis clinical isolate 6341. The class given is cell-based.
For test [5], the system named is Mycobacterium tuberculosis H37Rv. The experiment in a line: Murine TB model (experimental hematogenously disseminated tuberculosis). The class given is in vivo, BALB/c line mice. As to conditions: for Survival of animals: Groups 4/5, 25 mg/kg oral.
The mark [6] stands for this setting: Mycolicibacterium vaccae, IMET1010670; read-out: MIC M.vaccae.
The mark [7] stands for this setting: Mycolicibacterium smegmatis, SG987; read-out: MIC M. smegmatis.
Where [8] appears, read: Mycolicibacterium vaccae, IMET1010670, read-out: MIC M.vaccae.
Setting [9] is: Mycolicibacterium smegmatis, SG987, read-out: MIC M. smegmatis.
[10] abbreviates: 25 mg/kg orally, 42 days after inoculation of the culture medium.

Take `CC1OC2(CCN(c3nc(=O)c4cc(C(F)(F)F)cc([N+](=O)[O-])c4s3)CC2)OC1C` (stereo not drawn) [Compound 5, 2-(2,3-dimethyl-1,4-dioxa-8-azaspiro[4.5]dec-8-yl)-8-nitro-6-(trifluoromethyl)-1,3-benzothiazin-4-one]: the MIC in the test on M. fortuitum B was 0.078 ng/mL (≈ 0.000175 µM); in test [1], 0.39 µg/mL (≈ 0.876 µM); with M. vaccae IMET 10 10670 (setting [6]), 0.078 ng/mL (≈ 0.000175 µM); in test [2] (setting [7]), 6.25 ng/mL (≈ 0.014 µM); in test [3], less than 0.39 µg/mL; in test [4] it was less than 0.39 µg/mL. For the same molecule, the MBC worked out at 0.45 µg/mL (≈ 1.01 µM) in test [1], 0.39 µg/mL (≈ 0.876 µM) in test [3] and 0.39 µg/mL (≈ 0.876 µM) in test [4].
Consider `CC1COC2(CCN(c3nc(=O)c4cc(C#N)cc([N+](=O)[O-])c4s3)CC2)O1` (stereo not drawn) [Compound 10, 2-(2-methyl-1,4-dioxa-8-azaspiro[4.5]dec-8-yl)-8-nitro-4-oxo-1,3-benzothiazine-6-carbonitrile], for which the MIC in the test on M. fortuitum B was found to be 12.5 ng/mL (≈ 0.0322 µM); in test [1], 0.45 µg/mL (≈ 1.16 µM); in the test on M. vaccae IMET 10 10670 (setting [6]), 3.12 ng/mL (≈ 0.00803 µM); in test [2] (setting [7]) it was 25 ng/mL (≈ 0.0644 µM); in test [3], 0.39 µg/mL (≈ 1 µM); in test [4], 0.58 µg/mL (≈ 1.49 µM). Further, the MBC in test [1] stood at 0.71 µg/mL (≈ 1.83 µM); in test [3] it was 0.78 µg/mL (≈ 2.01 µM); in test [4] it was 0.78 µg/mL (≈ 2.01 µM).
Regarding `O=c1nc(N2CCC3(CC2)OCCO3)sc2c([N+](=O)[O-])cc(C(F)(F)F)cc12` [Compound 1, 2-(1,4-dioxa-8-azaspiro[4.5]dec-8-yl)-8-nitro-6-(trifluoromethyl)-1,3-benzothiazin-4-one], the MIC came out at 12.5 ng/mL (≈ 0.0299 µM) in the test with M. fortuitum B; 1.17 µg/mL (≈ 2.8 µM) in test [1]; 3.12 ng/mL (≈ 0.00748 µM) in the test on M. vaccae IMET 10 10670 (setting [6]); 12.5 ng/mL (≈ 0.0299 µM) in test [2] (setting [7]); 1.56 µg/mL (≈ 3.74 µM) in test [3]; 1.56 µg/mL (≈ 3.74 µM) in test [4]. For the same molecule, the MBC in test [1] is 1.75 µg/mL (≈ 4.19 µM); in test [3] it was 2.34 µg/mL (≈ 5.61 µM); in test [4] it was 2.34 µg/mL (≈ 5.61 µM).
Turning to `Cc1c([N+](=O)[O-])cc2c(=O)nc(N3CCC4(CC3)OCCO4)sc2c1[N+](=O)[O-]` [Compound 8, 2-(1,4-dioxa-8-azaspiro[4.5]dec-8-yl)-7-methyl-6,8-dinitro-1,3-benzothiazin-4-one], the MIC in the test on M. fortuitum B is 25 ng/mL (≈ 0.0612 µM); in the test on M. vaccae IMET 10 10670 (setting [8]) it was 25 ng/mL (≈ 0.0612 µM); in test [2] (setting [9]), 400 ng/mL (≈ 0.979 µM).
In the case of `CC1COC2(CCN(c3nc(=O)c4cc([N+](=O)[O-])cc([N+](=O)[O-])c4s3)CC2)O1` (stereo not drawn) [Compound 4, 2-(2-methyl-1,4-dioxa-8-azaspiro[4.5]decyl)-6,8-dinitro-1,3-benzothiazin-4-one], the MIC with M. fortuitum B came out at 3 ng/mL (≈ 0.00735 µM); in the test with M. vaccae IMET 10 10670 (setting [8]) it was 3 ng/mL (≈ 0.00735 µM); in test [2] (setting [9]), 200 ng/mL (≈ 0.49 µM).
On to `O=c1nc(N2CCC3(CC2)OCCO3)sc2c([N+](=O)[O-])cc([N+](=O)[O-])cc12` [Compound 3, 2-(1,4-dioxa-8-azaspiro[4.5]dec-8-yl)-6,8-dinitro-1,3-benzothiazin-4-one], for which the MIC in the test with M. fortuitum B came to 6 ng/mL (≈ 0.0152 µM); in the test on M. vaccae IMET 10 10670 (setting [8]) it was 1.5 ng/mL (≈ 0.0038 µM); in test [2] (setting [9]) it was 200 ng/mL (≈ 0.507 µM).
Taken in the same sequence, the figures for `O=c1nc(N2CCC3(CC2)OCCCCO3)sc2c([N+](=O)[O-])cc([N+](=O)[O-])cc12` [Compound 7, 2-(7,12-dioxa-3-azaspiro[5.6]dodec-3-yl)-6,8-dinitro-1,3-benzothiazin-4-one] were 3 ng/mL (≈ 0.0071 µM), 3 ng/mL (≈ 0.0071 µM) and 780 ng/mL (≈ 1.85 µM).
With `N#Cc1cc([N+](=O)[O-])c2sc(N3CCC4(CC3)OCCO4)nc(=O)c2c1` [Compound 9, 2-(1,4-dioxa-8-azaspiro[4.5]dec-8-yl)-8-nitro-4-oxo-1,3-benzothiazine-6-carbonitrile], the MIC in the test with M. fortuitum B stood at 25 ng/mL (≈ 0.0668 µM); in test [1], 0.52 µg/mL (≈ 1.39 µM); in the test on M. vaccae IMET 10 10670 (setting [6]) it was 3.12 ng/mL (≈ 0.00833 µM); in test [2] (setting [7]), 50 ng/mL (≈ 0.134 µM); in test [3], 0.58 µg/mL (≈ 1.55 µM); in test [4] it was 0.78 µg/mL (≈ 2.08 µM). The MBC was found to be 0.75 µg/mL (≈ 2 µM) in test [1], 0.78 µg/mL (≈ 2.08 µM) in test [3] and 1.17 µg/mL (≈ 3.13 µM) in test [4].
In the case of `NNC(=O)c1ccncc1` [Isoniazid (INH), Isoniazid, reference compound], the MBC in test [3], in test [3] (read-out: MBC (µg/mL) mean), in test [4] and in test [4] (read-out: MBC (µg/mL) mean) was greater than 100 µg/mL throughout. Moreover, the MIC in test [3], in test [3] (read-out: MIC (µg/mL) mean), in test [4] and in test [4] (read-out: MIC (µg/mL) mean) was greater than 100 µg/mL throughout. The Injury index in test [5] (25 mg/kg orally, daily 6 times per week, four-score scale, liver, spleen and lungs) is reported as 1,2. Besides, the “Efficacy index (%)” value in test [5] (25 mg/kg orally, 100% - injury index of group / injury index of control x 100) is reported as 70,5%. In test [5] (setting [10]), the “right lung Culture, without dilution CFU” value is “∼ 40 CFU”. In addition, in test [5] (setting [10]), the “spleen Culture, without dilution CFU” value was “∼ 40 CFU”. Besides, the Survival of animals in test [5] (day of treatment 1, of 10 animals) stood at 10; in test [5] (day of treatment 2, of 10 animals), 10; in test [5] (day of treatment 3, of 10 animals), 10; in test [5] (day of treatment 4, of 10 animals) it was 10; in test [5] (day of treatment 5, of 10 animals), 10; in test [5] (day of treatment 6, of 10 animals), 10. Moreover, the Survival of animals in test [5] (day of treatment 7, of 10 animals) stood at 10; in test [5] (day of treatment 8, of 10 animals) it was 10; in test [5] (day of treatment 9, of 10 animals), 10; in test [5] (day of treatment 10, of 10 animals) it was 10; in test [5] (day of treatment 11, of 10 animals), 10; in test [5] (day of treatment 12, of 10 animals), 10. Besides, the Survival of animals in test [5] (day of treatment 13, of 10 animals) was determined as 10; in test [5] (day of treatment 14, of 10 animals) it was 10; in test [5] (day of treatment 15, of 10 animals), 10; in test [5] (day of treatment 16, of 10 animals), 10; in test [5] (day of treatment 17, of 10 animals), 10; in test [5] (day of treatment 18, of 10 animals), 10. In addition, the Survival of animals in test [5] (day of treatment 19, of 10 animals) is on record as 10; in test [5] (day of treatment 20, of 10 animals), 10; in test [5] (day of treatment 21, of 10 animals), 10; in test [5] (day of treatment 22, of 10 animals), 10; in test [5] (day of treatment 23, of 10 animals), 10; in test [5] (day of treatment 24, of 10 animals) it was 10. In addition, the Survival of animals in test [5] (day of treatment 25, of 10 animals) stood at 10; in test [5] (day of treatment 26, of 10 animals), 10; in test [5] (day of treatment 27) it was 100%.
